Laboratory results as given in PubChem BioAssay AID1996.
Converted amounts (≈) assume the structure as drawn.

Settings: buffer; pH 7.4; 200.0 µM

Compound | solubility kinetic [µg/mL]
COCCN(C(=S)Nc1cccc(C)c1)C(C)c1cccnc1 (stereo unspecified) | 48.2 (≈ 146 µM)
C=CCOc1ccc(CN(C)CC(O)COc2cccc3ccccc23)cc1 (stereo unspecified) | 19.5 (≈ 51.7 µM)
[O-][n+]1ccc(OCc2ccccc2)cc1 | > 30.2
CN1CCN(C(=O)/C=C/c2ccccc2)CC1 | > 34.5
CCOC(=O)C1=C(COC(=O)c2ccco2)NC(=O)NC1CC (stereo unspecified) | > 48.3
C=CCn1c(O)c(C=Nc2ccc(F)cc2)c(=O)[nH]c1=O | 19.3 (≈ 66.7 µM)
CC(NS(=O)(=O)c1ccc2[nH]c(=O)c(=O)[nH]c2c1)C(=O)O (stereo unspecified) | 13.9 (≈ 44.4 µM)
CN(C)c1nc(N(C)C)nc(N2CC(=O)N(c3ccccc3)C2=N)n1 | 8.4 (≈ 24.7 µM)
COc1ccc(C(=O)Nc2cnccn2)cc1[N+](=O)[O-] | 13.9 (≈ 50.7 µM)
NC(=O)c1oc2ccccc2c1NC(=O)C1COc2ccccc2O1 (stereo unspecified) | < 0.4
COc1ccc(NC(=O)c2cccc(NS(=O)(=O)c3ccccc3)c2)cc1 | 34.2 (≈ 89.4 µM)
FC(F)Oc1ccccc1NC(=S)Nc1cccnc1 | 43.8 (≈ 148 µM)
O=C(CCC(=O)c1cccs1)NC1CCCCCC1 | 25.6 (≈ 91.6 µM)
COc1cccc(C(=O)O/N=C(\N)c2ccccn2)c1 | > 40.7
O=C(O)c1ccccc1-c1ccccc1C(=O)Nc1ccc(OC(F)(F)F)cc1 | > 60.2
O=CNCc1nc2ccccc2n1CCCc1ccccc1 | > 44
CCCNC(=O)c1cc(-c2ccc3c(c2)OCO3)on1 | 2.9 (≈ 10.6 µM)
CC(C(=O)OCC(=O)c1ccccc1)N1C(=O)C2C3CCC(C3)C2C1=O (stereo unspecified) | > 53.3
Nc1cc(Cl)ccc1C(=O)OCC(=O)N1CCOCC1 | > 44.8
CCC1CCCCN1CC(=O)c1c(C)[nH]c2ccc(OC)cc12 (stereo unspecified) | 35 (≈ 111 µM)
Cc1ccc(OS(=O)(=O)c2cn(C)c(=O)n(C)c2=O)cc1C | > 48.7
CC(OC(=O)c1cc(S(=O)(=O)N2CCOCC2)ccc1F)C(=O)NCC1CCCCC1 (stereo unspecified) | > 68.5
NC(=O)C1CCN(c2oc(-c3cccs3)nc2S(=O)(=O)c2ccc(Cl)cc2)CC1 | 51.9 (≈ 115 µM)
C=CCn1cc(/C=C2\SC(N3CCOCC3)=NC2=O)c2ccccc21 | 9.5 (≈ 26.9 µM)

Compound | solubility kinetic [µg/mL]
CCOc1ccc(NC(=S)N2CCC(NC(=O)c3ccccc3)CC2)cc1 | 4.2 (≈ 11 µM)
O=c1oc(-c2cccc([N+](=O)[O-])c2)nc2ccccc12 | 3.2 (≈ 11.9 µM)
CCN(C(=O)CSc1nc2ccc(C)cc2[nH]1)C1CCS(=O)(=O)C1 (stereo unspecified) | > 55.1
CC(=O)Nc1ccc(S(=O)(=O)NCCC(=O)NC(C)c2cccs2)cc1 (stereo unspecified) | > 59.3
COC(=O)c1ccc(C(=S)NCC2(N(C)C)CCCCC2)cc1 | 45.6 (≈ 136 µM)
COc1ccc(NC(=O)c2cc3ccccc3o2)cc1OC | 7.9 (≈ 26.6 µM)
O=C(NCc1ccc(F)cc1)c1ccc[nH]1 | > 32.7
CCN1C(=O)CS/C1=N\S(=O)(=O)c1ccccc1 | > 42.7
CCN(CC)S(=O)(=O)c1ccc(C(=O)Nc2cc(S(=O)(=O)N3CCOCC3)ccc2O)cc1 | 12.2 (≈ 24.5 µM)
NC(=O)CSc1nc(-c2ccccc2)nc2ccccc12 | 0.7 (≈ 2.37 µM)
O=C(Nc1ccc(C(=O)N2CCCc3ccccc32)cc1)c1cccs1 | < 0.4
c1ccc(CNc2ncnc3sc4c(c23)CCCC4)nc1 | 6.7 (≈ 22.6 µM)
CN1C(C(=O)Nc2ccccn2)=C(O)c2sc(Cl)cc2S1(=O)=O | 15.5 (≈ 41.7 µM)
COC(=O)CSc1nnc(CCc2ccccc2)n1C | > 43.7
CC(C)N1CC(C(=O)Nc2ccc(Cl)c([N+](=O)[O-])c2)CC1=O (stereo unspecified) | 45.4 (≈ 139 µM)
C=CCOc1ccc(C=Nc2ccc(OC)cc2)c(O)c1 | 6.5 (≈ 22.9 µM)
CC1CC1C(=O)OCC(=O)Nc1ccc(S(=O)(=O)N2CCOCC2)cc1 (stereo unspecified) | > 57.4
CCCCCCN=C1CC(C)(C)CC(=O)/C1=C(/O)CCC | 19.5 (≈ 66.5 µM)
O=C(NCc1ccc2c(c1)OCO2)c1cc(=O)[nH]c2ccccc12 | 6 (≈ 18.6 µM)
N#Cc1ccc(NCC(=O)Nc2ccc3c(c2)OCCO3)cc1 | 29.6 (≈ 95.7 µM)
Cl.NCCSC1CC(=O)N(Cc2ccc(F)cc2)C1=O (stereo unspecified) | 37.9
CCOC(=O)c1cc2c(ccn2C)n1CC(=O)N(CC)CC | > 45.8
Cc1cc(C(=O)CCC(=O)Nc2ncccc2C)c(C)s1 | 26.1 (≈ 86.3 µM)
COc1ccc(CN(C)C(=O)COC(=O)c2cc([N+](=O)[O-])ccc2N2CCCC2)c(OC)c1OC | 10.2 (≈ 20.9 µM)

Compound | solubility kinetic [µg/mL]
Cn1cnnc1SCC(=O)NCCC1=CCCCC1 | > 42.1
CCc1cccc2c(C(=O)COC(=O)[C@@H]3CC(O)CN3S(=O)(=O)c3ccccc3[N+](=O)[O-])c[nH]c12 (stereo partly specified) | 30.6 (≈ 61 µM)
Cc1ccc(NC(=O)CSc2nccn2C)cc1F | > 41.9
O=C(Nc1ccc(CN2CCOCC2)cc1)c1cc(Cl)ccc1Cl | 50.1 (≈ 137 µM)
NC(=NC(=O)c1cccc(C(F)(F)F)c1)c1ccc(C(F)(F)F)cn1 | 0.9 (≈ 2.49 µM)
O=S(=O)(c1ccc(=S)[nH]c1)N1CCCCC1 | 21.9 (≈ 84.8 µM)
CC(c1ccccc1)N1CC(C(=O)Nc2ccc(F)cc2)CC1=O (stereo unspecified) | > 49
COc1cc(OC)cc(C(=O)NCC(C)NC(=O)c2cc(OC)cc(OC)c2)c1 (stereo unspecified) | 39.6 (≈ 98.4 µM)
c1ccc(-c2nc(N3CCOCC3)sc2-c2ccccc2)cc1 | < 0.3
CC(C)(C)c1ccc(C(=O)NCC(=O)N2CCCC2)cc1 | > 43.3
COc1ccc(NC(=O)CCN2C(=O)c3ccccc3C2=O)cc1 | 23.1 (≈ 71.2 µM)
O=Cc1c(NCCN2CCCC2)c2ccccc2[nH]c1=O | > 42.8
Cc1cc(OC(C)C(=O)Nc2ccncc2)ccc1Cl (stereo unspecified) | > 43.6
O=C(O)C1CCCCC1C(=O)NCCc1ccc(F)cc1 (stereo unspecified) | > 44
O=C(Cc1ccsc1)Nc1cc(F)ccc1F | > 38
O=C(NCC(=O)N1CCN(c2ccc([N+](=O)[O-])cc2)CC1)c1ccco1 | 11.4 (≈ 31.8 µM)
COc1ccc(C(=O)NC(Cc2c[nH]c3ccccc23)C(=O)O)cc1 (stereo unspecified) | > 50.8
O=C(O)c1cccnc1SCc1cccc(Cl)c1 | 41.5 (≈ 148 µM)
CN(C)C(=S)NC(=O)C12CC3(C)CC(C)(CC(C)(C3)C1)C2 | 1 (≈ 3.24 µM)
COC(=O)c1cc(OC)nc2ccc(Br)cc12 | < 0.6
Nc1nnc(SCC(=O)OCC(=O)c2ccccc2)s1 | > 46.4
COC(=O)c1ccc(N2CCN(c3ccccc3)CC2)c(N)c1 | 0.8 (≈ 2.57 µM)
Cc1ccc(S(=O)(=O)N2CC(O)CC2C(=O)O)cc1 (stereo unspecified) | > 42.8
CC(=O)c1cccc(NC(=O)C2=CN3CCS(=O)(=O)N=C3C=C2)c1 | 48.1 (≈ 139 µM)

Compound | solubility kinetic [µg/mL]
O=C(CSc1nccc(=O)[nH]1)NC1CCCC1 | 36 (≈ 142 µM)
COc1ccc(CCNC(=O)c2cc3cc(F)ccc3nc2C)cc1OC | 2.3 (≈ 6.24 µM)
O=C(Nc1ccccc1)c1ccc(NC(=O)c2cccs2)cc1 | < 0.3
CC(C)C(=O)NNC(=O)c1csc(-c2cccs2)n1 | > 44.3
CCOC(=O)Cn1ccc(-c2ccccc2)c(C#N)c1=O | > 42.3
COc1ccc(NC(=O)NC2(C(=O)N3CCOCC3)CCCCC2)cc1 | 43 (≈ 119 µM)
COc1cc(C=O)cc(Cl)c1OC(=O)N1CCOCC1 | 39.5 (≈ 132 µM)
CN1C(=O)c2ccc(NC(=O)C3CC3)cc2C1=O | 33.4 (≈ 137 µM)
COc1ccc(CNC(=S)Nc2cccc(OC)c2)cc1 | 41.1 (≈ 136 µM)
COc1cc(OC)c(C(=O)O/N=C(\N)c2ccccc2)cc1OC | 45.7 (≈ 138 µM)
C/C(=C\c1ccccc1)C(=O)N1CCN(Cc2ccc3c(c2)OCO3)CC1 | 51.8 (≈ 142 µM)
COc1cc(NC(=S)Nc2cccnc2)cc(OC)c1 | < 0.2
Cc1ccc2nc(C)c(C(=O)O)cc2c1 | > 30.2
O=C(CSc1ccc(F)cc1)Nc1cccc(S(=O)(=O)N2CCOCC2)c1 | > 61.6
COc1ccc(C(=O)NC23CC4CC(CC(C4)C2)C3)cc1 | 1 (≈ 3.5 µM)
CCOC(=O)C1CCN(C(=O)/C=C/c2ccc(S(=O)(=O)N3CCOCC3)cc2)CC1 | > 65.5
O=C(Oc1ccc(C(=S)N2CCOCC2)cc1Cl)c1ccccc1F | 9.9 (≈ 26.1 µM)
CC(C)(C)OC(=O)N1CCCN(C(=O)Nc2cccc(Cl)c2)CC1 | 51.4 (≈ 145 µM)
CC1Cc2ccccc2N1C(=O)Cn1cnc2ccccc21 (stereo unspecified) | 42.3 (≈ 145 µM)
Cc1cc(C(=O)NCc2ccccc2Cl)c2ccccc2n1 | 4.1 (≈ 13.2 µM)
Cc1onc(-c2ccccc2Cl)c1NC(=O)NCc1cccs1 | 42.6 (≈ 122 µM)
N#Cc1ccccc1NC(=O)COC(=O)CCc1ccccc1 | > 46.3
CC(=O)c1ccc(N2CCN(C(=O)c3cccs3)C(C)C2)c(F)c1 (stereo unspecified) | > 52
CCc1sc(C(=O)Nc2ccc3c(c2)OCO3)cc1C | 4.9 (≈ 16.9 µM)

Compound | solubility kinetic [µg/mL]
Cc1cc(=S)c2ccccc2[nH]1 | 20.5 (≈ 117 µM)
COc1ccc(C(=O)OCC(=O)c2ccc3c(c2)NC(=O)CO3)cc1[N+](=O)[O-] | 2.7 (≈ 6.99 µM)
O=C(O)c1ccc(S(=O)(=O)N(Cc2ccccc2)Cc2ccccc2)cc1 | 19.5 (≈ 51.1 µM)
O=C(O)CC(CC(=O)N1CCOCC1)c1ccccc1 (stereo unspecified) | > 41.6
COc1cc(C(=O)OCC(=O)NC2CCCC2)cc(OC)c1OC | > 50.6
CC(=O)c1ccc(N2C(=O)C3C4C=CC(CC4)C3C2=O)cc1 (stereo unspecified) | > 44.3
Cc1cnc(C(=O)OCC(=O)NC(C)c2ccccc2)cn1 (stereo unspecified) | > 44.9
CCc1noc(C)c1C(=O)Nc1ccc(F)c(F)c1 | 37.7 (≈ 142 µM)
O=C(CN1CCCCCC1)Nc1cc(C(F)(F)F)ccc1Cl | < 0.4
Cc1ccc(NC(=O)C2CCCC2)c(Br)c1 | 8.6 (≈ 30.5 µM)
COc1ccc(/C=C2/SC(=S)NC2=O)cc1OCc1ccccc1 | < 0.8
Cc1nc2ccc(NS(=O)(=O)c3ccc(F)c(F)c3F)cc2s1 | 50.7 (≈ 141 µM)
NS(=O)(=O)c1ccc(NC(=O)CCC(=O)c2cccs2)cc1 | 14.7 (≈ 43.4 µM)
COCCNc1nc(N)c([N+](=O)[O-])c(N2CCCCCC2)n1 | 6.3 (≈ 20.3 µM)
Cc1cccc(C)c1NC(=O)NC1CCc2ccccc21 (stereo unspecified) | 1 (≈ 3.57 µM)
CC1CCCC(C)N1C(=O)COC(=O)Cc1ccc(Cl)cc1 (stereo unspecified) | > 48.6
CCCc1cnc(N2CCN(S(C)(=O)=O)CC2)nc1 | > 42.7
CN1CCC(N(C)C(=O)COc2ccccc2Cl)CC1 | > 44.5
O=C(/C=C/c1ccc(Cl)cc1)Nc1cc(S(=O)(=O)N2CCOCC2)ccc1N1CCOCC1 | 5.9 (≈ 12 µM)
Cc1ccc(S(=O)(=O)N2CCCc3ccccc32)cc1C | 2.3 (≈ 7.63 µM)
